Source: ChEMBL document CHEMBL6120968, “Discovery of Thiadiazoleamide Derivatives as Potent, Selective, and Orally Available Antagonists Disrupting Androgen Receptor Homodimer” (J Med Chem, 2024)
Calls of active or inactive are those of the source. The calls are words filed in the database; no cut-off is given here.

Test system: LNCaP
Assay: Antiproliferative activity against human LNCaP cells assessed as survival rate incubated for 3 days by MTT assay
Details: 72 h

Structure (SMILES) | IC50 [nM]
CNC(=O)c1ccc(N2C(=S)N(c3ccc(C#N)c(C(F)(F)F)c3)C(=O)C2(C)C)cc1F [ENZALUTAMIDE] | 27700

Test system: not listed separately
Assay: Antagonist activity at Androgen receptor F877L/T878A double mutant in human HEK293T cells cotransfected with MMTV-luc and renilla plasmid incubated for 24 hrs by Dual luciferase assay
Assay type: cell-based
Details: HEK-293T

Structure (SMILES) | IC50 [nM]
CC(O)c1cc(C(=O)N[C@@H](C)Cn2ccc(-c3ccc(C#N)c(Cl)c3)n2)n[nH]1 (some centres undefined) [DAROLUTAMIDE] | 670

Target: T1, Androgen receptor (Homo sapiens, UniProt P10275)
T1 sequence (P10275 whole entry): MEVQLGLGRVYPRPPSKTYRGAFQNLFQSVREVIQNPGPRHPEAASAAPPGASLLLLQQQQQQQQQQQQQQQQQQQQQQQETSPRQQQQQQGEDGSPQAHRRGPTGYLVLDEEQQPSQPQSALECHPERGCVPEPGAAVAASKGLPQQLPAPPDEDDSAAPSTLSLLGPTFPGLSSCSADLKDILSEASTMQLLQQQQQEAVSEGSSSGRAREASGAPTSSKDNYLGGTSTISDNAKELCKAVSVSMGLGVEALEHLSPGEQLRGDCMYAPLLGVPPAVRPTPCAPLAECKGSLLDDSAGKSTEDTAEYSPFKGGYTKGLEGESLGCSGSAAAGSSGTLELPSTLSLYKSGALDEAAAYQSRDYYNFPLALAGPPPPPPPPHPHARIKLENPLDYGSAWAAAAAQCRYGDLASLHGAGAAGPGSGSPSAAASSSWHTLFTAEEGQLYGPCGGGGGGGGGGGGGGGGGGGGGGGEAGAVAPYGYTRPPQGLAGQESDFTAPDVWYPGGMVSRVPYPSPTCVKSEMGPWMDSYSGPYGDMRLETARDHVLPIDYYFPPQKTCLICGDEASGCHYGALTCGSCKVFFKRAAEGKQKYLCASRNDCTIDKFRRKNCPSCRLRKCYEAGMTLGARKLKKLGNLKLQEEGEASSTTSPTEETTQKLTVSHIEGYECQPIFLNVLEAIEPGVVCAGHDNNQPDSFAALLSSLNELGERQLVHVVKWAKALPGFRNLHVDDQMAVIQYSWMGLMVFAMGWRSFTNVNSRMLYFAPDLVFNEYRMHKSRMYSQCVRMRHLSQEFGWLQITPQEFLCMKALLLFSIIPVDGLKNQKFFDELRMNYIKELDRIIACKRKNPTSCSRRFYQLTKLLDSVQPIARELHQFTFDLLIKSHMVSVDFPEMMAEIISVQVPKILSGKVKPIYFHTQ
Assay: Antagonist activity at Androgen receptor in human LNCaP cells transfected with ARR2PB-eGFP incubated for 3 days by synergy H1 microplate reader analysis
Assay type: cell-based
Details: not given

IC50 [nM] | Structure (SMILES)
8400 | CC(=O)Cc1nsc(NC(=O)c2cc(-c3cccc(C(F)(F)F)c3)oc2C(F)(F)F)n1
26 | Cc1oc(-c2ccc(F)c(C(F)(F)F)c2)cc1C(=O)Nc1nc(CN2CCOCC2)ns1
50000 | CC(=O)Cc1ccc(NC(=O)c2cc(-c3cccc(C(F)(F)F)c3)oc2C)cc1
470 | Cc1oc(-c2cccc(C(F)(F)F)c2)cc1C(=O)Nc1nc(CN2CCC(O)C2)ns1 (centres undefined)
29 | Cc1oc(-c2cccc(C(F)(F)F)c2)cc1C(=O)Nc1nc(CC(C)O)ns1 (centres undefined)
140 | Cc1oc(-c2cccc(C(F)(F)F)c2)cc1C(=O)Nc1nc(CN2CCC(O)CC2)ns1
260 | Cc1oc(-c2cc(Cl)cc(C(F)(F)F)c2)cc1C(=O)Nc1nc(CN2CCOCC2)ns1
61 | Cc1oc(-c2cccc(C(F)(F)F)c2)cc1C(=O)Nc1nc(CN2CCCC2)ns1
29 | Cc1oc(-c2cc(C(F)(F)F)ccc2Cl)cc1C(=O)Nc1nc(CN2CCOCC2)ns1
16 | Cc1oc(-c2cccc(OC(F)F)c2)cc1C(=O)Nc1nc(CN2CCOCC2)ns1
860 | Cc1oc(-c2cccc(C(F)(F)F)c2Cl)cc1C(=O)Nc1nc(CN2CCOCC2)ns1
150 | CC(=O)Cc1nsc(NC(=O)c2cc(-c3cccc(C(F)(F)F)c3)oc2C)n1
36 | Cc1oc(-c2cccc(C(F)(F)F)c2)cc1C(=O)Nc1nc(CC(C)N2CCN(C)CC2)ns1 (centres undefined)
19 | Cc1oc(-c2cccc(OC(F)(F)F)c2)cc1C(=O)Nc1nc(CN2CCOCC2)ns1
280 | CC(Cc1nsc(NC(=O)c2cc(-c3cccc(C(F)(F)F)c3)oc2C)n1)=C(F)F
35 | Cc1oc(-c2ccc(Cl)c(C(F)(F)F)c2)cc1C(=O)Nc1nc(CN2CCOCC2)ns1

IC50 [nM] | Structure (SMILES)
180 | Cc1oc(-c2cccc(C(F)(F)F)c2)cc1C(=O)Nc1ncns1
24 | Cc1oc(-c2cccc(C(F)(F)F)c2)cc1C(=O)Nc1nc(CC(C)N2CCCC2)ns1 (centres undefined)
18 | Cc1oc(-c2cc(C(F)(F)F)ccc2F)cc1C(=O)Nc1nc(CN2CCOCC2)ns1
24 | Cc1oc(-c2cccc(C(F)(F)F)c2)cc1C(=O)Nc1nc(CN2CCCCC2)ns1
32 | Cc1oc(-c2cccc(C(F)(F)F)c2)cc1C(=O)Nc1nc(CC(C)N2CCOCC2)ns1 (centres undefined)
9200 | CC(=O)Cc1nsc(NC(=O)c2cc(-c3cccc(C(F)(F)F)c3)sc2C)n1
150 | Cc1oc(-c2cccc(C(F)(F)F)c2)cc1C(=O)Nc1nc(CN2CCCC(O)C2)ns1 (centres undefined)
270 | Cc1oc(-c2cccc(C(F)(F)F)c2)cc1C(=O)Nc1nc(CN2CCC(C(C)(C)O)CC2)ns1
22 | COc1cccc(-c2cc(C(=O)Nc3nc(CN4CCOCC4)ns3)c(C)o2)c1
200 | Cc1oc(-c2cccc(C(F)(F)F)c2F)cc1C(=O)Nc1nc(CN2CCOCC2)ns1
16 | Cc1oc(-c2cccc(C#N)c2)cc1C(=O)Nc1nc(CN2CCOCC2)ns1
160 | Cc1oc(-c2cccc(C(F)(F)F)c2)cc1C(=O)Nc1nc(CN2CCC(CO)CC2)ns1
74 | Cc1oc(-c2cccc(C(F)(F)F)c2)cc1C(=O)Nc1nc(CN2CCN(C)CC2)ns1
450 | Cc1oc(-c2cccc(C(F)(F)F)c2)cc1C(=O)Nc1nc(CC(C)N2CCCCC2)ns1 (centres undefined)
710 | CC(=O)Cc1nsc(NC(=O)c2coc(-c3cccc(C(F)(F)F)c3)c2)n1
450 | Cc1oc(-c2cccc(C(F)(F)F)c2)cc1C(=O)Nc1nccs1

Structure (SMILES) | IC50 [nM]
Cc1oc(-c2cccc(C(F)(F)F)c2)cc1C(=O)Nc1nc(CC(C)N(C)C)ns1 (centres undefined) | 280

Test system: LNCaP
Assay: Downregulation of FKBP5 level in DHT-induced human LNCaP cells at 0.1 to 1 uM incubated for 24 hrs by Western blot analysis
Assay type: functional, cell-based
Details: dose 0.1-1 µM

Structure (SMILES) | Activity
Cc1oc(-c2cccc(C(F)(F)F)c2)cc1C(=O)Nc1nc(CN2CCC(CO)CC2)ns1 | Active

Test system: LNCaP C4-2
Assay: Antiproliferative activity against human LNCaP C4-2 cells assessed as survival rate incubated for 3 days by MTT assay
Details: LNCaP C4-2, 72 h

Structure (SMILES) | IC50 [nM]
CNC(=O)c1ccc(N2C(=S)N(c3ccc(C#N)c(C(F)(F)F)c3)C(=O)C2(C)C)cc1F [ENZALUTAMIDE] | 27700

Test system: LNCaP
Assay: Antiproliferative activity against human LNCaP cells assessed as inhibition of cell proliferation incubated for 3 days by MTT assay
Assay type: functional, cell-based
Details: 72 h

IC50 [nM] | Structure (SMILES)
3270 | Cc1oc(-c2cc(C(F)(F)F)ccc2Cl)cc1C(=O)Nc1nc(CN2CCOCC2)ns1
2750 | Cc1oc(-c2cc(C(F)(F)F)ccc2F)cc1C(=O)Nc1nc(CN2CCOCC2)ns1
12400 | CNC(=O)c1ccc(N2C(=S)N(c3ccc(C#N)c(C(F)(F)F)c3)C(=O)C2(C)C)cc1F [ENZALUTAMIDE]

Test system: LNCaP C4-2B
Assay: Antiproliferative activity against human LNCaP C4-2B cells assessed as survival rate incubated for 3 days by MTT assay
Details: 72 h

Structure (SMILES) | IC50 [nM]
CNC(=O)c1ccc(N2C(=S)N(c3ccc(C#N)c(C(F)(F)F)c3)C(=O)C2(C)C)cc1F [ENZALUTAMIDE] | 16300

Test system: NIH3T3
Assay: Antiproliferative activity against mouse 3T3 cells assessed as reduction in cell viability incubated for 3 days by MTT assay
Assay type: toxicity, cell-based
Details: nih3t3, 72 h, time 3 day

Structure (SMILES) | Activity
Cc1oc(-c2cc(F)cc(C(F)(F)F)c2)cc1C(=O)Nc1nc(CN2CCOCC2)ns1 | Non-toxic

Test system: not listed separately
Assay: Downregulation of PSA level in human LNCaP cells transfected with ARR2PB-eGFP incubated for 24 hrs by Western blot analysis
Details: not given

IC50 [nM] | Structure (SMILES)
520 | CNC(=O)c1ccc(N2C(=S)N(c3ccc(C#N)c(C(F)(F)F)c3)C(=O)C2(C)C)cc1F [ENZALUTAMIDE]

Target: Voltage-gated inwardly rectifying potassium channel KCNH2 (Homo sapiens, UniProt Q12809)
Assay: (§1) Inhibition of hERG at 10 uM relative to control
Assay type: toxicity
Details: 10 µM

Voltage-gated inwardly rectifying potassium channel KCNH2, sequence (Q12809 whole entry): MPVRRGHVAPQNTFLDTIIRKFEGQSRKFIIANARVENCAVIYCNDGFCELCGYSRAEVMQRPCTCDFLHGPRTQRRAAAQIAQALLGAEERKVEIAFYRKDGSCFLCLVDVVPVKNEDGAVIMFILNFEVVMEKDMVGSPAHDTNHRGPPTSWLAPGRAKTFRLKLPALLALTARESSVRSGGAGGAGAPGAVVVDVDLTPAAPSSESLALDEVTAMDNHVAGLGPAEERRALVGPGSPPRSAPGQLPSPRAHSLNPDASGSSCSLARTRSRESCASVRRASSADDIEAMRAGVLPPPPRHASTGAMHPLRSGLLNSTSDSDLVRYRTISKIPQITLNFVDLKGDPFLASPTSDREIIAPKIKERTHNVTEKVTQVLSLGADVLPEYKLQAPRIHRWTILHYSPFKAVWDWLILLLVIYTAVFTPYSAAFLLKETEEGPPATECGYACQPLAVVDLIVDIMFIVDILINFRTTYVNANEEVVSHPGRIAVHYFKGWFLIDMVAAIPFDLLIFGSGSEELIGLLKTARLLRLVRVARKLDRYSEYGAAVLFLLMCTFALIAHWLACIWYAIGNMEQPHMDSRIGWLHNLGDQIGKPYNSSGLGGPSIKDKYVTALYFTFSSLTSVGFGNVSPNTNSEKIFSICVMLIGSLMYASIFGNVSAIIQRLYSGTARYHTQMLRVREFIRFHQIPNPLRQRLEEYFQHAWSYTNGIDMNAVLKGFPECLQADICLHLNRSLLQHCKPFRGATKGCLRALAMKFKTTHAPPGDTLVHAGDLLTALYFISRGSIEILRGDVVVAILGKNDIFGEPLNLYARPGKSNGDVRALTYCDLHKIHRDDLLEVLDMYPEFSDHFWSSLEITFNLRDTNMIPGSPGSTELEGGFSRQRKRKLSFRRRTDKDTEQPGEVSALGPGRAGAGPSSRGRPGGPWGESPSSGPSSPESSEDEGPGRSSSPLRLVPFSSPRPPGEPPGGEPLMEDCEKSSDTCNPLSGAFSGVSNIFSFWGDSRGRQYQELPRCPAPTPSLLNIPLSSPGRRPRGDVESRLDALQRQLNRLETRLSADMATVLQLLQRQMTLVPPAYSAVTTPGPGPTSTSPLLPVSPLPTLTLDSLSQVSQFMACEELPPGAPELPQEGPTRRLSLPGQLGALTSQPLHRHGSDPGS

Structure (SMILES) | inhibition (INH)
CNC(=O)c1ccc(N2C(=S)N(c3ccc(C#N)c(C(F)(F)F)c3)C(=O)C2(C)C)cc1F [ENZALUTAMIDE] | Not_active

Target: hERG (KCNH2) (Homo sapiens, UniProt Q12809)
Assay: as §1
Assay type: toxicity
Details: not given

hERG (KCNH2), sequence (Q12809 whole entry): as above

Structure (SMILES) | inhibition at 10 µM [%]
Cc1oc(-c2cc(C(F)(F)F)ccc2Cl)cc1C(=O)Nc1nc(CN2CCOCC2)ns1 | 8
Cc1oc(-c2cccc(OC(F)F)c2)cc1C(=O)Nc1nc(CN2CCOCC2)ns1 | 68.3
Cc1oc(-c2cc(F)cc(C(F)(F)F)c2)cc1C(=O)Nc1nc(CN2CCOCC2)ns1 | 16.4
Cc1oc(-c2cccc(OC(F)(F)F)c2)cc1C(=O)Nc1nc(CN2CCOCC2)ns1 | 47.3
Cc1oc(-c2ccc(Cl)c(C(F)(F)F)c2)cc1C(=O)Nc1nc(CN2CCOCC2)ns1 | 51.3
Cc1oc(-c2cccc(C(F)(F)F)c2)cc1C(=O)Nc1nc(CC(C)N2CCCC2)ns1 (centres undefined) | 93.5
Cc1oc(-c2cc(C(F)(F)F)ccc2F)cc1C(=O)Nc1nc(CN2CCOCC2)ns1 | 21
Cc1oc(-c2cccc(C(F)(F)F)c2)cc1C(=O)Nc1nc(CN2CCCCC2)ns1 | 95.5
COc1cccc(-c2cc(C(=O)Nc3nc(CN4CCOCC4)ns3)c(C)o2)c1 | 36.9
Cc1oc(-c2cccc(C#N)c2)cc1C(=O)Nc1nc(CN2CCOCC2)ns1 | 47.8
